In patent US20050020643A1, “Pyridinyl amides and compositions thereof for use as fungicides” (priority 2002, published 2005):

What was measured:
Format in all cases: in vivo
[1] = test system: Erysiphe graminis f. sp. tritici; test: Test A: preventive control of wheat powdery mildew on wheat seedlings; parameters: concentration or dose not given beside the values; settings: sprayed day before inoculation, rated after 7 days, rate not given
Phytophthora infestans [2] = settings: tomato (or potato) seedlings, sprayed day before inoculation; rate not given
Plasmopara viticola [3] = test: Test E: preventive control of grape downy mildew on grape seedlings; settings: sprayed day before inoculation, rate not given
Phytophthora infestans [4] = test: whole plant or invertebrate; settings: for Test F disease control rating: 100 g/ha on potato seedlings, sprayed day after inoculation; for pest or weed control at 100 g/ha: Phytophthora infestans, in Solanum tuberosum, 120 h, read-out: Test F disease control rating
Plasmopara viticola [5] = test: Test G: curative control of grape downy mildew on grape seedlings (sprayed after inoculation); settings: sprayed day after inoculation, rate not given

Compound | Test A disease control rating [1] | Test D disease control rating (Phytophthora infestans [2]) | Test E disease control rating (Plasmopara viticola [3]) | Test F disease control rating (Phytophthora infestans [4]) | Test G disease control rating (Plasmopara viticola [5]) | pest or weed control at 100 g/ha (Phytophthora infestans [4])
O=C(NCc1ncc(Br)cc1Br)c1c(Cl)ccnc1Cl [Compound 17] | 0% | 100% | 99% | 73% | 98% | –
Cc1cc(Cl)c(C(=O)NCc2ncc(Br)cc2Br)c(Cl)n1 [Compound 18] | 0% | 100% | 100% | 77% | 100% | –
Cc1cc(Cl)c(C(=O)NCc2ncc(Cl)cc2Cl)c(Cl)n1 [Compound 19, 2,4-Dichloro-N-[(3,5-dichloro-2-pyridinyl)methyl]-6-methyl-3-pyridinecarboxamide] | 0% | 99% | 100% | – | 100% | 0%
Cc1cc(Cl)c(C(=O)NC(C)c2ncc(Cl)cc2Cl)c(Cl)n1 (stereo not shown) [Compound 20, 2,4-Dichloro-N-[1-(3,5-dichloro-2-pyridinyl)ethyl]-6-methyl-3-pyridinecarboxamide] | 0% | 100% | 100% | – | 100% | 53%
COc1cnc(C(C)NC(=O)c2c(Cl)cc(C)nc2Cl)c(Cl)c1 (stereo not shown) [Compound 21] | 0% | 99% | 100% | 53% | 77% | –
COc1cnc(C(C)NC(=O)c2c(Cl)ccnc2Cl)c(Cl)c1 (stereo not shown) [Compound 22] | 0% | 100% | 100% | 98% | 94% | –
CC(NC(=O)c1c(Cl)ccnc1Cl)c1ncc(Br)cc1I (stereo not shown) [Compound 23] | 0% | 100% | 100% | 98% | 96% | –
O=C(NCc1ncc(Br)cc1Cl)c1c(I)ccnc1Cl [Compound 24] | 0% | 100% | 100% | 0% | 84% | –
CC(NC(=O)c1c(I)ccnc1Cl)c1ncc(Br)cc1Cl (stereo not shown) [Compound 25] | 0% | 100% | 100% | 0% | 72% | –
O=C(NCc1ncc(Cl)cc1Cl)c1c(I)ccnc1Cl [Compound 26] | 0% | 100% | 81% | 0% | 99% | –
CC(NC(=O)c1c(I)ccnc1Cl)c1ncc(Cl)cc1Cl (stereo not shown) [Compound 27] | 0% | 100% | 100% | 0% | 100% | –
CC(NC(=O)c1c(Br)ccnc1Cl)c1ncc(Br)cc1Cl (stereo not shown) [Compound 28] | 0% | 99% | 100% | 100% | 100% | –
Cc1ccnc(Br)c1C(=O)NC(C)c1ncc(Br)cc1Cl (stereo not shown) [Compound 29] | 0% | 99% | 100% | 57% | 94% | –
CC(NC(=O)c1c(I)ccnc1Cl)c1ncc(Br)cc1Br (stereo not shown) [Compound 30] | 0% | 100% | 100% | 44% | 93% | –
